Experimental data as given in patent publication US20230192704A1, “MONOCARBOXYLIC ACID TRANSPORTER 4 (MCT4) MODULATORS AND USES THEREOF” (Teon Therapeutics, Inc., priority 2020, published 2023).

How the values were obtained:
[1] = target: T1, MCT1 (Homo sapiens, UniProt P53985); experiment: MCT1 transport assay (L-lactate influx, BCECF-AM intracellular pH); assay type: cell-based; settings: BT-20 cells expressing exclusively MCT1
T1 construct: BT-20 cells—a triple negative human breast cancer cell line expressing exclusively MCT1 (confirmed by Western blotting); host or cells: BT-20
T1 sequence (P53985 1-500): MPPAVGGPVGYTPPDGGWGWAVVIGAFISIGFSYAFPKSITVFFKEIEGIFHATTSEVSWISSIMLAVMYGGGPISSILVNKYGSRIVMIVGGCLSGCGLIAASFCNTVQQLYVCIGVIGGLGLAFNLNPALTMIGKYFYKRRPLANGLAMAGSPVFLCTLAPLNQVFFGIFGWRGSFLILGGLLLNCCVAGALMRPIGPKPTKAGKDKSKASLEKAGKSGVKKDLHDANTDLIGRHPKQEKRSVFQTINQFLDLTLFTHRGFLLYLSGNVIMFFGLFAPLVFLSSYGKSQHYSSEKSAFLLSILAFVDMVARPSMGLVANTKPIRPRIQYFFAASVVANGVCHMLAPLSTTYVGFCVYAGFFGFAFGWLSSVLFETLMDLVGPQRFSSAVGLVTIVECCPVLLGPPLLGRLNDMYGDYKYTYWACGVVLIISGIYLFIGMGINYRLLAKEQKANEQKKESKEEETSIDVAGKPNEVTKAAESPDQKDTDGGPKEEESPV
T1 sequence (P35613 140-385 partner limits assumed): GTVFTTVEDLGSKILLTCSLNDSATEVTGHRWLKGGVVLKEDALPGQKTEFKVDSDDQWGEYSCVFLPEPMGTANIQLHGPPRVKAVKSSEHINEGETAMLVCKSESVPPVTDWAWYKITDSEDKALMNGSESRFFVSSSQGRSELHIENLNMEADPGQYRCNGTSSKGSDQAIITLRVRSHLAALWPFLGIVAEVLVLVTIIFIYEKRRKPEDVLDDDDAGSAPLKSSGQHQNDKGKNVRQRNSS
Text: The following in vitro MCT4 and MCT1 transport assays were used to measure the effect of the compounds on L-lactate influx into two different cell lines: • a) MDA-MB-231 cells—a triple negative human breast cancer cell line expressing exclusively MCT4 (confirmed by Western blotting) was used for the MCT4 transport assay, • b) BT-20 cells—a triple negative human breast cancer cell line expressing exclusively MCT1 (confirmed by Western blotting) was used for the
(§1) The compounds' efficacy in both assays was determined by calculating their IC50 value (the concentration of test compound that inhibited 50% of biological activity).
(§2) MCT4 is predominantly involved in cellular efflux of lactate from the cell, preventing intracellular acidification. In the MCT4 in vitro transport system described here it was possible to drive influx of lactate in the cells and test the compounds efficacy in preventing this process. MCT1 is involved in influx-efflux of lactate, and because it is closely related to MCT4, it is a major selectivity target for MCT4 inhibitor. The MCT1 in vitro transport system described here measured the influx of lactate in the cells and ability of test compounds in preventing this process.
BT-20 (ATCC); Media: EMEM+10% FBS+1% PS
(§3) Tyrode's Solution pH7.4 (NaCl 119 mM; KC1 5 mM; HEPES pH7.4 25 mM; CaCl2 2 mM; MgCl2 2 mM; Glucose 6 g/L)
(§4) The following assay was performed to assess MCT4 (MDA-MB-231 cell line) or MCT1 (BT-20 cell line) activity by monitoring the intracellular pH change that accompanies lactate/proton transport using the pH-sensitive fluorescent dye BCECF-AM.
(§5) Compound preparation: The compounds were serially diluted in 100% DMSO 1:3 for 8 pts and transferred (500 nl) to a 96-well plate by Echo.
(§6) Cell preparation: Cells were briefly rinsed with 10 ml of PBS solution to remove all traces of serum, trypsinized (0.05% Trypsin-EDTA) at 25° C. for 2-3 minutes and washed twice with Tyrode's solution. The cell viability and concentration were determined using Vi-Cell. Cells were resuspended in Tyrode's solution.
(§7) Cells were loaded with the pH sensitive dye BCECF-AM (5 uM final concentration from the 30 mM DMSO stock solution) at 37° C. for 30 minutes before being washed twice to remove excess dye and resuspended to 2 million/ml cells in Tyrode's solution. Cells were seeded into a 96-well plate (200,000 cells/well) directly onto the test compound or a reference compound for 10 minutes at 37° C. Following incubation with test compounds, 25 ul of 30 mM Sodium-L-lactate was added. This addition was performed on the FlexStation III as a part of a real-time kinetic protocol. The ratio of cellular fluorescence at 535 nm after excitation at 490 nm/440 nm was measured over time for baseline (pre-lactate addition) and post-lactate addition for 60 sec with or without compounds present. Inhibitory concentration response curves were generated for compounds and their IC50 values calculated.

[2] = target: T2, MCT4 (Homo sapiens, UniProt O15427); experiment: MCT4 transport assay (L-lactate influx, BCECF-AM intracellular pH); assay type: cell-based; settings: MDA-MB-231 cells expressing exclusively MCT4
T2 construct: MDA-MB-231 cells—a triple negative human breast cancer cell line expressing exclusively MCT4 (confirmed by Western blotting); host or cells: MDA-MB-231
T2 sequence (O15427 2-465 limits assumed): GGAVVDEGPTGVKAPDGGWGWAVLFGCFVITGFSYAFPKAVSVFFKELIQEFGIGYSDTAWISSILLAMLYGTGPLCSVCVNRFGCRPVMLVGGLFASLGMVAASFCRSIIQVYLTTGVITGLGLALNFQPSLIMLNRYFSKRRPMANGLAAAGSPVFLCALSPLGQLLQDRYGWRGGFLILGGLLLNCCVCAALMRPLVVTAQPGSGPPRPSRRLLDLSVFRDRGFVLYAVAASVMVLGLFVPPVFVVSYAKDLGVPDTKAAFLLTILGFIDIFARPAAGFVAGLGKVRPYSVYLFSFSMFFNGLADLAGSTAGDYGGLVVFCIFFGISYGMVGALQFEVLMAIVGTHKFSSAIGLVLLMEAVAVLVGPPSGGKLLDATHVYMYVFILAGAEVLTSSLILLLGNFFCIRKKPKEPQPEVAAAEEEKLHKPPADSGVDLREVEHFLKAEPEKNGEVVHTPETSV
Protocol: as §1, §2, §3, §4, §5, §6, §7

## Cc1nc2nc(C)c(O[C@@H]3CCN(c4ccc(-c5ccc(CN6CCOCC6)nn5)cc4)C3)c(C)n2n1 [Compound 1, (R)-4-((6-(4-(3-((2,5,7-trimethyl-[1,2,4]triazolo[1,5-a]pyrimidin-6-yl)oxy)pyrrolidin-1-yl)phenyl)pyridazin-3-yl)methyl)morpholine]
[1]
  IC50: > 1 µM

## Cc1cn2c(C)c(O[C@@H]3CCN(c4ccc(-c5ccc(CN6CCOCC6)nn5)cc4)C3)c(C)nc2n1 [Compound 2, (R)-4-((6-(4-(3-((2,5,7-trimethylimidazo[1,2-a]pyrimidin-6-yl)oxy)pyrrolidin-1-yl)phenyl)pyridazin-3-yl)methyl)morpholine]
[2]
  IC50: 0.1 to 0.499 µM
[1]
  IC50: > 1 µM

## Cc1nc2nc(C)c(C)n2c(C)c1O[C@@H]1CCN(c2ccc(-c3ccc(CN4CCOCC4)nn3)cc2)C1 [Compound 3, (R)-4-((6-(4-(3-((2,3,5,7-tetramethylimidazo[1,2-a]pyrimidin-6-yl)oxy)pyrrolidin-1-yl)phenyl)pyridazin-3-yl)methyl)morpholine]
[2]
  IC50: > 1 µM
[1]
  IC50: > 1 µM

## Cc1cc2nc(C)c(O[C@@H]3CCN(c4ccc(-c5ccc(CN6CCOCC6)nn5)cc4)C3)c(C)n2n1 [Compound 4, (R)-4-((6-(4-(3-((2,5,7-trimethylpyrazolo[1,5-a]pyrimidin-6-yl)oxy)pyrrolidin-1-yl)phenyl)pyridazin-3-yl)methyl)morpholine]
[2]
  IC50: < 0.1 µM
[1]
  IC50: > 1 µM

## Cc1nc2nc(C)c(O[C@@H]3CCN(c4cnc(C#CCN5CCOCC5)nc4)C3)c(C)n2n1 [Compound 5, (R)-4-(3-(5-(3-((2,5,7-trimethyl-[1,2,4]triazolo[1,5-a]pyrimidin-6-yl)oxy)pyrrolidin-1-yl)pyrimidin-2-yl)prop-2-yn-1-yl)morpholine]
[2]
  IC50: < 0.1 µM
[1]
  IC50: > 1 µM

## Cc1nc2nc(C)c(O[C@@H]3CCN(c4cnc(C56CCC(CN7CCOCC7)(CC5)CC6)nc4)C3)c(C)n2n1 [Compound 6, (R)-4-((4-(5-(3-((2,5,7-trimethyl-[1,2,4]triazolo[1,5-a]pyrimidin-6-yl)oxy)pyrrolidin-1-yl)pyrimidin-2-yl)bicyclo[2.2.2]octan-1-yl)methyl)morpholine]
[2]
  IC50: < 0.1 µM
[1]
  IC50: > 1 µM

## Cc1nc2nc(C)c(O[C@@H]3CCN(c4ccc(-c5ccc(CN6CC7(COC7)C6)nn5)cc4)C3)c(C)n2n1 [Compound 7, (R)-6-((6-(4-(3-((2,5,7-trimethyl-[1,2,4]triazolo[1,5-a]pyrimidin-6-yl)oxy)pyrrolidin-1-yl)phenyl)pyridazin-3-yl)methyl)-2-oxa-6-azaspiro[3.3]heptane]
[2]
  IC50: < 0.1 µM
[1]
  IC50: > 1 µM

## COC1CN(Cc2ccc(-c3ccc(N4CC[C@@H](Oc5c(C)nc6nc(C)nn6c5C)C4)cc3)nn2)C1 [Compound 8, (R)-6-((1-(4-(6-((3-methoxyazetidin-1-yl)methyl)pyridazin-3-yl)phenyl)pyrrolidin-3-yl)oxy)-2,5,7-trimethyl-[1,2,4]triazolo[1,5-a]pyrimidine]
[2]
  IC50: < 0.1 µM
[1]
  IC50: > 1 µM

## Cc1nc2nc(C)c(O[C@@H]3CCN(c4ccc(-c5ccc(CN6CC(N(C)C)C6)nn5)cc4)C3)c(C)n2n1 [Compound 9, (R)-N,N-dimethyl-1-((6-(4-(3-((2,5,7-trimethyl-[1,2,4]triazolo[1,5-a]pyrimidin-6-yl)oxy)pyrrolidin-1-yl)phenyl)pyridazin-3-yl)methyl)azetidin-3-amine]
[2]
  IC50: < 0.1 µM
[1]
  IC50: > 1 µM

## Cc1nc2nc(C)c(O[C@@H]3CCN(c4ccc(-c5ccc(CN6CC(S(C)(=O)=O)C6)nn5)cc4)C3)c(C)n2n1 [Compound 10, (R)-2,5,7-trimethyl-6-((1-(4-(6-((3-(methylsulfonyl)azetidin-1-yl)methyl)pyridazin-3-yl)phenyl)pyrrolidin-3-yl)oxy)-[1,2,4]triazolo[1,5-a]pyrimidine]
[2]
  IC50: < 0.1 µM
[1]
  IC50: > 1 µM

## Cc1nc2nc(C)c(O[C@@H]3CCN(c4ccc(-c5ccc(CN6CC(C(N)=O)C6)nn5)cc4)C3)c(C)n2n1 [Compound 11, (R)-1-((6-(4-(3-((2,5,7-trimethyl-[1,2,4]triazolo[1,5-a]pyrimidin-6-yl)oxy)pyrrolidin-1-yl)phenyl)pyridazin-3-yl)methyl)azetidine-3-carboxamide]
[2]
  IC50: 0.1 to 0.499 µM
[1]
  IC50: > 1 µM

## Cc1nc2nc(C)c(O[C@@H]3CCN(c4ccc(-c5ccc(CN6CC(C(=O)N(C)C)C6)nn5)cc4)C3)c(C)n2n1 [Compound 12, (R)-N,N-dimethyl-1-((6-(4-(3-((2,5,7-trimethyl-[1,2,4]triazolo[1,5-a]pyrimidin-6-yl)oxy)pyrrolidin-1-yl)phenyl)pyridazin-3-yl)methyl)azetidine-3-carboxamide]
[2]
  IC50: < 0.1 µM
[1]
  IC50: > 1 µM

## Cc1nc2nc(C)c(O[C@@H]3CCN(c4ccc(-c5ccc(C(=O)N6CC7(COC7)C6)nn5)cc4)C3)c(C)n2n1 [Compound 13, (R)-(2-oxa-6-azaspiro[3.3]heptan-6-yl)(6-(4-(3-((2,5,7-trimethyl-[1,2,4]triazolo[1,5-a]pyrimidin-6-yl)oxy)pyrrolidin-1-yl)phenyl)pyridazin-3-yl)methanone]
[2]
  IC50: < 0.1 µM
[1]
  IC50: > 1 µM

## COC1CN(C(=O)c2ccc(-c3ccc(N4CC[C@@H](Oc5c(C)nc6nc(C)nn6c5C)C4)cc3)nn2)C1 [Compound 14, (R)-(3-methoxyazetidin-1-yl)(6-(4-(3-((2,5,7-trimethyl-[1,2,4]triazolo[1,5-a]pyrimidin-6-yl)oxy)pyrrolidin-1-yl)phenyl)pyridazin-3-yl)methanone]
[2]
  IC50: < 0.1 µM
[1]
  IC50: > 1 µM

## Cc1nc2nc(C)c(O[C@@H]3CCN(c4ccc(-c5ccc(C(=O)N6CC(N(C)C)C6)nn5)cc4)C3)c(C)n2n1 [Compound 15, (R)-(3-(dimethylamino)azetidin-1-yl)(6-(4-(3-((2,5,7-trimethyl-[1,2,4]triazolo[1,5-a]pyrimidin-6-yl)oxy)pyrrolidin-1-yl)phenyl)pyridazin-3-yl)methanone]
[2]
  IC50: < 0.1 µM
[1]
  IC50: > 1 µM

## Cc1nc2nc(C)c(O[C@@H]3CCN(c4ccc(-c5ccc(C(=O)N6CC(S(C)(=O)=O)C6)nn5)cc4)C3)c(C)n2n1 [Compound 16, (R)-(3-(methylsulfonyl)azetidin-1-yl)(6-(4-(3-((2,5,7-trimethyl-[1,2,4]triazolo[1,5-a]pyrimidin-6-yl)oxy)pyrrolidin-1-yl)phenyl)pyridazin-3-yl)methanone]
[2]
  IC50: < 0.1 µM
[1]
  IC50: > 1 µM
